One block for each compound: values may come before it. Positions of bridges follow the written chain, without caps; N, C: chain ends. Residues, ends and D or L forms follow the SMILES beside them. No end group written: not given here. *: point of attachment. Biotin = O=C1N[C@H]2[C@H](CS[C@H]2CCCCC(=O)*)N1
How the values were obtained:
[1] = molecular target: T1, purified insulin receptor (Homo sapiens, UniProt P06213); assay: Holoenzyme phosphorylation assay (IR autophosphorylation, Western blot); type: biochemical
T1 construct: host or cells: 'Wheat Germ Agglutinin Expression System' (so in the source)
T1 sequence (P06213 28-758 limits assumed): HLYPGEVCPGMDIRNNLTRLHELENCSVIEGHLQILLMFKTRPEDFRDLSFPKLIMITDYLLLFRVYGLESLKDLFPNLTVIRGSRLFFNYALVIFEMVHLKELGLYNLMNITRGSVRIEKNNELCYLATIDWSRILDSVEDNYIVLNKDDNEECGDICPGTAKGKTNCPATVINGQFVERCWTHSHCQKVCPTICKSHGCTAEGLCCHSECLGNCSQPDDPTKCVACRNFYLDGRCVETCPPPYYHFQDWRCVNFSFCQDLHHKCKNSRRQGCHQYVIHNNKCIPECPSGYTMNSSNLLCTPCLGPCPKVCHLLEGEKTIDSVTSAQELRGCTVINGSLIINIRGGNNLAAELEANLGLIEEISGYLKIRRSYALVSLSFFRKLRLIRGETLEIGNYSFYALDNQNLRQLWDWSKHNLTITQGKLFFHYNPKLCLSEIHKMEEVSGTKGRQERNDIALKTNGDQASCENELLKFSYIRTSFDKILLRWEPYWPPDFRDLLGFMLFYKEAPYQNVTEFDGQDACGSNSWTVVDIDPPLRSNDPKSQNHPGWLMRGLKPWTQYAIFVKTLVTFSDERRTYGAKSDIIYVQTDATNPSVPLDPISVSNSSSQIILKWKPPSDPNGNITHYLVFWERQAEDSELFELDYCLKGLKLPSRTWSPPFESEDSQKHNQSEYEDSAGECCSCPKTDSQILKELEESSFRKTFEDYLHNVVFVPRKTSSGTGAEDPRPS
T1 sequence (P06213 763-1382 limits assumed): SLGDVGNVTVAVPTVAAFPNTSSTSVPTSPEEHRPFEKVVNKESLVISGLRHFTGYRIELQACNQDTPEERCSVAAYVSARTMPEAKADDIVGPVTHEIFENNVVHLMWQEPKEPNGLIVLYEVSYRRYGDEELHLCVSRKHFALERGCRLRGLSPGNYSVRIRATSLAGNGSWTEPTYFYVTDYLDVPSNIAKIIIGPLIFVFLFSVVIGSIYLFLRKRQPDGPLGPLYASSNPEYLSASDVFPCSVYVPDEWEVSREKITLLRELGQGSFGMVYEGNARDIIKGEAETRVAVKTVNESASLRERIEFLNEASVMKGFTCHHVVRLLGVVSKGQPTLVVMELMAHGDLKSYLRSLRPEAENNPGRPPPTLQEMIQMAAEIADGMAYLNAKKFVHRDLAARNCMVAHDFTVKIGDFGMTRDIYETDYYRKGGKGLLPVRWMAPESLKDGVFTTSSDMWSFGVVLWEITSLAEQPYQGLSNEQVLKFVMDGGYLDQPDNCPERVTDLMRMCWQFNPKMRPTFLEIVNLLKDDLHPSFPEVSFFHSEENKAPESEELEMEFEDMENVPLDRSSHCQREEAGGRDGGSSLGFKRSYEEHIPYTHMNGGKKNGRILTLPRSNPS
Experimental: Alternatively, IR autophosphorylation was determined using a holoenzyme phosphorylation assay. […] The reaction was stopped by adding 50 µl of gel loading buffer containing β-mercaptoethanol (Bio-Rad Laboratories, Inc., Hercules, CA). The samples were run on 4-12% SDS-polyacrylamide gels. Western Blot analysis was performed by transferring the proteins onto nitrocellulose membrane. The membrane was blocked in PBS containing 3% milk overnight. The membrane was incubated with anti-phosphotyrosine 4G10 HRP labeled antibody (Upstate Biotechnology) for 2 h. Protein bands were visualized using SuperSignal West Dura Extended Duration Substrate Chemiluminescence Detection System (Pierce Chemical Co.).

Insulin receptor [2] = molecular target: T2, Insulin receptor (Homo sapiens, UniProt P06213); assay: BIAcore competition: IR pre-incubated with test substance, injected over immobilised insulin; type: binding; details: peptide about 40 µM, IR 450 nM; IR alone 128 RU
T2 construct: composed of the extracellular domains of both the α and β chains of the natural receptor; made in house; background b13 names human embryonic kidney 293 cells for the Bass et al. construct
T2 sequence (P06213 28-758 limits assumed): as the sequence (P06213 28-758 limits assumed) above
T2 sequence (P06213 763-956 limits assumed): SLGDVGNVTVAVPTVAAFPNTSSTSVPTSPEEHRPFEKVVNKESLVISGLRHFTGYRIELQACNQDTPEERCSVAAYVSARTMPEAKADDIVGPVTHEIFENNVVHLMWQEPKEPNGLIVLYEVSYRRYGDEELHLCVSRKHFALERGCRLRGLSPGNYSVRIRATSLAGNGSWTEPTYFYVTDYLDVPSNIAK
Experimental: Flowcell-1 was used for background binding to correct for any non-specific binding. […] The surface was regenerated with 25 mM NaOH. […] Thus, the system was validated for competition studies. […] The amino acid sequences referred to in the tables are identified in Figures 47 and 48, except the 447 and 2A9 sequences, which are shown below. TABLE 9: BIAcore Results-Fusion Proteins Compete for Binding to IR

IGF-1R [3] = molecular target: T3, IGF-1R (Homo sapiens, UniProt P08069); assay: Phage ELISA, binding of phage-displayed peptides to IGF-1R; details: 405 nm
T3 construct: Soluble IGF-1R was obtained from R&D Systems; purchased R&D Systems 391-GR/CF
T3 sequence (P08069 31-736 limits assumed): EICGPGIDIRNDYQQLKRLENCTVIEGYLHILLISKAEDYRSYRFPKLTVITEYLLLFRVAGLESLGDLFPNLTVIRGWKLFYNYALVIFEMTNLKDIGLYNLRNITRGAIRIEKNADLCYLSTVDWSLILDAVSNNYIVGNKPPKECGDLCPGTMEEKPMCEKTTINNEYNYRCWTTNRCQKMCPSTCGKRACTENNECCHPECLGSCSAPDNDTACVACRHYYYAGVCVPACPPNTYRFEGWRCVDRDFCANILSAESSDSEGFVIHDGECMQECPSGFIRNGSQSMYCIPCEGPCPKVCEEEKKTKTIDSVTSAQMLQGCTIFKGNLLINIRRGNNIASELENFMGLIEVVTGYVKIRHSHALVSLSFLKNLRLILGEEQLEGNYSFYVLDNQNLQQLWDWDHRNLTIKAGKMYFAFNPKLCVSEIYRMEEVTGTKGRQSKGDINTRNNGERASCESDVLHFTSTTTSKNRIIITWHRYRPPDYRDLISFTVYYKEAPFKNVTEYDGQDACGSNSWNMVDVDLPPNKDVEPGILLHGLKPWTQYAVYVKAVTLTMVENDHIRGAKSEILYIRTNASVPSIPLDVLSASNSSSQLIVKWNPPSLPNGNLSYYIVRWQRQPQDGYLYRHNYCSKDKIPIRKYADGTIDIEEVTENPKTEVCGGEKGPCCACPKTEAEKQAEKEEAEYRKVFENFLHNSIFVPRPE
T3 sequence (P08069 741-935 limits assumed): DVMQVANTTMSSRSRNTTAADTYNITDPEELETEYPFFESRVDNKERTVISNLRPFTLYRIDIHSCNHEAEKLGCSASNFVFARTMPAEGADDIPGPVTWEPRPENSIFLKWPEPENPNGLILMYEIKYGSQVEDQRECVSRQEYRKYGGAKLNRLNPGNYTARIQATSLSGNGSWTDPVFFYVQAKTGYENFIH
Experimental: Figures 1A-10G. Amino acid sequences comprising the motif of Formulas 1 through 10. […] One hundred microliters of this solution was added to an appropriate number of wells in a 96-well microtiter plate (MaxiSorp plates, Nunc) and incubated overnight at 4°C. […] Subsequent steps are the same for pooled and clonal phage. […] Phage resuspended in MPBS were added to duplicate wells (100 µl/well) and incubated at RT for 1 h. […] Incubation was for 1 h at RT, followed by PBS washes as described. […] Phage ELISA. […] The wells were blocked with 200 µl of MPBS for 1.5 h at RT. Phage were added at 100 µl per well. Peptides were added as noted below and allowed to incubate at RT for 3 h. The plates were washed 3 times with PBST. A solution of 1:3000 diluted HRP:Anti-M13 conjugate at 100 µl per well of was added for 1 h. Following a repeat of the washing, 100 µl of ABTS was added for 15-30 min. […] Phage ELISA. […] Phage were added at 100 µl per well. Peptides were added as noted below and allowed to incubate at RT for 3 h. The plates were washed 3X with PBST. A solution of 1:3000 diluted HRP:Anti-M13 Conjugate at 100 µl per well of was added for 1 h. Following a repeat of the washing, 100 µl of ABTS was added for 15-30 min. The OD405 was measured using a SpectraMax 340 Microplate Spectrophotometer.

adipocytes = assay: 3H-glucose uptake into adipocytes (fat cell assay, FFC); type: cell-based, Mouse; set-up: key to Resp.: -2 (antagonist); +2 (agonist); details: for Resp.: Subjective ranking, basal and sub maximal insulin, includes series A; for ED50: Estimated, not calculated values
IR [4] = molecular target: T4, IR (Homo sapiens, UniProt P06213); assay: Phage ELISA, binding of phage-displayed peptides to IR
T4 construct: composed of the extracellular domains of both the α and β chains of the natural receptor; made in house; background b13 names human embryonic kidney 293 cells for the Bass et al. construct
T4 sequence (P06213 28-758 limits assumed): as the sequence (P06213 28-758 limits assumed) above
T4 sequence (P06213 763-956 limits assumed): as the sequence (P06213 763-956 limits assumed) above
Experimental: Amino acid sequences comprising the motif of Formulas 1 through 10. […] Fifty microliters of this solution was added to an appropriate number of wells in a 96-well microtiter plate (MaxiSorp plates, Nunc) and incubated overnight at 4°C. […] To isolate specific binders, each library was panned against a soluble form of the human IR. This IR is composed of the extracellular domains of both the α and β chains of the natural receptor, as well as the constant domain from immunoglobulin Fc, retaining the β-α-α-β structure described above. Because the IR is expressed in a eukaryotic system, disulfide bond formation and glycosylation patterns should mimic the wild-type receptor. The details of this recombinant protein construct are described in Bass et al. (1996). Phage ELISA. […] The wells were blocked with 200 µl of MPBS for 1.5 h at RT. […] Peptides were added as noted below and allowed to incubate at RT for 3 h. The plates were washed 3 times with PBST. A solution of 1:3000 diluted HRP:Anti-M13 conjugate at 100 µl per well of was added for 1 h. Following a repeat of the washing, 100 µl of ABTS was added for 15-30 min. […] Phage ELISA. […] Peptides were added as noted below and allowed to incubate at RT for 3 h. […] A solution of 1:3000 diluted HRP:Anti-M13 Conjugate at 100 µl per well of was added for 1 h. Following a repeat of the washing, 100 µl of ABTS was added for 15-30 min. The OD405 was measured using a SpectraMax 340 Microplate Spectrophotometer.

[5] = molecular target: human IGF-1 receptor (HIGF-1R) (Homo sapiens, UniProt P08069); assay: 125I-IGF-1 competition binding assay on solubilised purified receptor; details: Kd HIGF1R / Kd HIR
human IGF-1 receptor (HIGF-1R), sequence (P08069 31-736 limits assumed): as the sequence (P08069 31-736 limits assumed) above
human IGF-1 receptor (HIGF-1R), sequence (P08069 741-1367 limits assumed): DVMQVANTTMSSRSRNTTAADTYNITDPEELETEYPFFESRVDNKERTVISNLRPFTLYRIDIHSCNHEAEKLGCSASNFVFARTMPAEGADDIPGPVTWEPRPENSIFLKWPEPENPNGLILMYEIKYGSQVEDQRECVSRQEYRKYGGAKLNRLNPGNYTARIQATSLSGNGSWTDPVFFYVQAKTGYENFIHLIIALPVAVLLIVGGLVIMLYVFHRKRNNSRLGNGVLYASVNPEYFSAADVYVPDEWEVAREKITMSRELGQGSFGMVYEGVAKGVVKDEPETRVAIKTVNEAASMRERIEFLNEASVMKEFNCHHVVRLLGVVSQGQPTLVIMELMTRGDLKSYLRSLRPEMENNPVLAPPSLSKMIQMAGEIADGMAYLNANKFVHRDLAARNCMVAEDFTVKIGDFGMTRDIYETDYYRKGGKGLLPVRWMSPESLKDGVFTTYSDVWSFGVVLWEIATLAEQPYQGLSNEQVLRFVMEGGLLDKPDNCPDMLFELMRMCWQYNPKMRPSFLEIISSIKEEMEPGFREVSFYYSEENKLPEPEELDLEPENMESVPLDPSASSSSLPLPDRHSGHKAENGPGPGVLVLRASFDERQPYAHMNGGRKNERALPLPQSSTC

IR [6] = molecular target: T4, IR; assay: Phage ELISA, competition of phage binding by soluble synthetic peptides, IR-coated wells; details: Insulin Receptor
Experimental: (§1) Peptide Competition. […] Twenty microliters of the stock synthetic-peptide solution was added to Row A. A series of 20 µl into 100 µl dilutions were performed until Row G. Twenty microliters were discarded from Row G to maintain 100 µl per well. Row H was reserved as no peptide wells. […] The volume was maintained by the addition of 18 µl of the phage solution to Row A.
(§2) Phage ELISA. […] The wells were blocked with 200 µl of 2% (w/v) Carnation non-fat dry milk in PBS for 1.5 h at RT. Phage were added at 100 µl per well. Peptides were added as noted below and allowed to incubate at RT for 3 h. The plates were washed 3X with PBST. A solution of 1:3000 diluted HRP:Anti-M13 Conjugate at 100 µl per well of was added for 1 h. Following a repeat of the washing, 100 µl of ABTS was added for 15-30 min. The OD405 was measured using a SpectraMax 340 Microplate Spectrophotometer.
(§3) Peptide Competition. Peptide Competition Curves were produced during the phage ELISA across rows in triplicate. The stock synthetic peptide solution was added to Column 12 so that the total volume totaled 150 µl (additional phage solution was added when necessary). A serial dilution was made by transferring 50 µl from Column 12 into 100 µl in Column 11, 50 µl from Column 11 into 100 µl in Column 10, and continuing the serial dilution until Column 2. Fifty microliters were discarded from Column 2 to maintain 100 µl per well. Column 1 was reserved as no peptide wells.
(§4) A p53-like peptide that binds to MDM2 was used as a negative control.

IGF-1R [7] = molecular target: T3, IGF-1R; assay: Phage ELISA, competition of phage binding by soluble synthetic peptides, IGF-1R-coated wells; details: IGF Receptor
Experimental: as §1, §2, §3, §4

[8] = Precipitate in diluted peptide stock prior to adding to the fat cell assay; solubility under assay conditions; type: physicochemical
Insulin receptor [9] = molecular target: T2, Insulin receptor; assay: Heterogeneous time-resolved fluorescence assay (TRFA) on insulin receptor; type: binding
Experimental: In this assay, saEu forms a ternary complex with bP and IR (i.e., IR:bP:saEu complex). The TRFD assay format is well established, sensitive, and quantitative (Tompkins et al., 1993). The assay can use a single-chain antibody or a biotinylated peptide.
In these assays, soluble IR is coated on the surface of microtiter wells, blocked by a solution of 0.5% BSA and 2% non-fat milk in PBS, and then incubated with biotinylated peptide or rVab. Unbound bP is then washed away and saEu is added to complex with receptor-bound bP. Upon addition of the acidic enhancement solution, the bound europium is released as free Eu^3+ which rapidly forms a highly fluorescent and stable complex with components of the enhancement solution. The IR:bP bound saEu is then converted into its highly fluorescent state and detected by a detector such as Wallac Victor II (EG&G Wallac, Inc.)
• a. Heterogeneous Time-Resolved Fluorescence Assay. […] The plates were blocked with TBS containing 2% milk and 0.5% BSA for 1 h at RT followed by three TBS washes. […] After TBS wash, europium-labeled streptavidin at 1 µg/ml in assay buffer (100 mM Tris-HCl, pH 7.8; 150 mM NaCl; 0.5% BSA; 0.05% bovine Ig; 0.05% NaN3; 0.01% Tween-20) was added to the plates and incubated for 1 h. To test binding of rVab antibodies to IR, Eu-labeled rVab antibodies in assay buffer were added to the plates and incubated for 2 h to overnight. After incubation with Eu-labeled streptavidin (for peptide test) or europium-labeled rVabs, the plates were washed 5 times with Tris-buffered saline (pH 7.5) containing 0.1 % Tween-20 (TTBS) and tapped dry. Sixty microliters of EG&G Wallac enhancement solution (100 mM acetone-potassium hydrogen pthalate, pH 3.2; […] 2-naphtyltrifluoroacetate; […] tri(n-octyl)-phosphine oxide; 0.1 % Triton X-100) was added into each well, and the plates were placed onto a shaker for 20 min at RT. […] Homogeneous Time-Resolved Fluorescence Assay. […] For library screening, 20 µM of small organic molecules in 2 % DMSO are included in the mixture.

[10] = tested on: FDCP2 cells (NIH) which express IGF-1R; assay: FDCP2 cell proliferation (WST-1), agonism; type: cell-based; details: not against IGF-1 R- cells
Experimental: Agonistic and antagonistic activities of the IGF-1-specific peptides were tested in FDCP2 cells (NIH) which express IGF-1R. […] Agonism activity assays were performed in a total volume of 100 µl in 96 well plates (flat bottom).
Proliferation assays were performed using WST-1 reagent. The WST-1 tetrazolium salt (slightly red) is cleaved to formazan (dark red) by the succinate-tetrazolium reductase system, which is active only in viable cells. An increase in the number of cells results in an increase in the overall activity of the dehydrogenase which results in a higher absorbance at 450 nm. […] Proliferation was measured by absorbance at 450 nm.

IGF-1R [11] = molecular target: T3, IGF-1R; assay: Competitive phage ELISA with IGF-1 on IGF-1R; type: binding
Experimental: For IC50 determinations in a competitive ELISA, microtiter plates were coated with IGF-1R and blocked as described. Phage were prepared as described. Prior to addition of phage to plates, the peptide or recombinant variable antibody or fragment ("rVab"), or an appropriate control, was diluted in PBS and added to duplicate wells (100 µl/well). After incubation for 1 h at RT, the prepared phage were added to each well (100 µl/well) without removing the peptide or rVab solution. After incubation for 1 h at RT, the wells were washed and the color developed as described above.
The clones were next analyzed for binding to the receptor's active site (Figures 20A and 20B).
For IC50 determinations, microtiter plates were coated with IGF-1R and blocked as described. Phage and soluble rVabs were prepared as described above. […] After incubation for 1 h at RT, the wells were washed and the color was developed as described above.

Compound: CC[C@H](C)[C@H](NC(=O)[C@H](CCC(=O)O)NC(=O)[C@@H](N)CCCCN)C(=O)N[C@@H](CCC(=O)O)C(=O)N[C@@H](C)C(=O)N[C@@H](CCC(=O)O)C(=O)N[C@@H](Cc1c[nH]c2ccccc12)C(=O)NCC(=O)N[C@@H](CCCNC(=N)N)C(=O)N[C@H](C(=O)N[C@@H](CCCNC(=N)N)C(=O)N[C@H]1CSSC[C@@H](C(=O)N[C@H](C(=O)NCC(=O)NCC(=O)N[C@@H](CCCCN)C(=O)N[C@@H](CCCCNC(=O)CCCC[C@@H]2SC[C@@H]3NC(=O)N[C@@H]32)C(N)=O)C(C)C)NC(=O)[C@H](CCCNC(=N)N)NC(=O)CNC(=O)[C@H](Cc2ccc(O)cc2)NC(=O)[C@H](C(C)C)NC(=O)[C@H](CC(C)C)NC1=O)C(C)C [Clone 20A4] (H-KEIEAEWGRVRCLVYGRCVGGKK(Biotin)-NH2; disulfide 12-18 (inferred); N-terminus assumed)
Autophosph. Blot [1]: 0
Result (RUs) (Insulin receptor [2]): 41.8 RUs
Absorbance Values sIGF-1R (IGF-1R [3]): 0.21
Resp. (adipocytes): -1
Absorbance Values IR (IR [4]; 405 nm): 1.61

Compound: LCQRLGVGWPGWLSGWCA [Clone H5]
activity toward IGF-1 R+ cells in cell culture [10]: agonistic activity

Compound: WNTVDPFYHKLSELLREKK [Clone B6]
inhibition of phage binding to immobilized IGF-1R by IGF-1 (IGF-1R [11]): could be inhibited with IGF-1
binding to IR when expressed as phage (IR [4]): do not have detectable binding
competition with binding of 12H10 to IR (Insulin receptor [9]): do not compete

Further lines, with some results ahead:

Autophosph. Blot [1]: 0
Ratio [5]: 1.8
binding to IR when expressed as phage (IR [4]): do not have detectable binding
Compound: CC[C@H](C)[C@@H]1NC(=O)[C@H](CCCNC(=N)N)NC(=O)[C@H](C(C)C)NC(=O)CNC(=O)[C@H](Cc2c[nH]c3ccccc23)NC(=O)[C@H](CO)NC(=O)[C@H](CCC(N)=O)NC(=O)[C@@H](NC(=O)[C@H](CC(C)C)NC(=O)[C@H](CC(=O)O)NC(=O)[C@H](CCCCN)NC(=O)[C@H](Cc2ccc(O)cc2)NC(=O)[C@@H](N)CC(=O)O)CSSC[C@@H](C(=O)N2CCC[C@H]2C(=O)N[C@@H](CCCCN)C(=O)N[C@@H](CCCCNC(=O)CCCC[C@@H]2SC[C@@H]3NC(=O)N[C@@H]32)C(N)=O)NC(=O)[C@H](CC(C)C)NC(=O)CNC(=O)[C@H](C)NC(=O)[C@H](CC(C)C)NC(=O)[C@H](Cc2c[nH]c3ccccc23)NC(=O)CNC1=O [JBA5] (H-DYKDLCQSWGVRIGWLAGLCPKK(Biotin)-NH2; disulfide 6-20 (inferred); N-terminus assumed)
Comments (dose response, effect at basal insulin) (adipocytes): Slight effect at basal insulin
ED50 (adipocytes): > 20 µM
Resp. (adipocytes): +2

Ratio [5]: 8.6
n (Hill plot) (IR [6]; 20D3 Phage): 1.03
n (Hill plot) (IR [6]; H2 Phage): 0.62
n (Hill plot) (IGF-1R [7]; 20D3 Phage): 0.81
n (Hill plot) (IGF-1R [7]; H2 Phage): 1.02
Comments (precipitation) ([8]; diluted stock prior to adding to assay): Precipitates
Comments (soluble under assay conditions) ([8]; under assay conditions, no ppt in microscope, low magnification): ≥ 20 µM
binding of rVab 12H10 to IR (Insulin receptor [9]; peptide at 30 µM): 40-50 % of control
Compound: FHENFYDWFVRQVSKK [Clone H2C]
Comments (dose response, effect at basal insulin) (adipocytes): Some response at basal insulin
ED50 (adipocytes): Approx 20 µM
Resp. (adipocytes): +2
ED50 in the effect assay (FFC) (adipocytes; best peptides, agonists): 20 to 30 µM

Reference: patent EP1383793B1 (priority 2000, dated 2001)
